Our source for the MIC values is patent US5977373A, “Thiadiazolyl and oxadiazolyl phenyl oxazolidinone antibacterial agents” (Pharmacia & Upjohn Company, priority 1998, dated 1999).

What all share (format): cell-based
The test system of one experiment is HI 30063. As to the kind of experiment: MIC for a gram negative bacterial strain (Table 2). The following applies: gram negative bacterial strain HI 30063.
For another experiment, the system named is S. pneumoniae UC ® 9912. In words: In vitro minimum inhibitory concentration (MIC) by agar dilution, gram-positive bacteria (Table 1). The settings on record: Streptococcus pneumoniae, UC9912. The text has this: (§1) The oxazolidinone antibacterial agents of this invention have useful activity against a variety of microorganisms. The in vitro activity of compounds of this invention can be assessed by standard testing procedures such as the determination of minimum inhibitory concentration (MIC) by agar dilution as described in "Methods for Dilution Antimicrobial Susceptibility Tests for Bacteria That Grow Aerobically" (MFT) published January 1983 by the National Committee for Clinical Laboratory Standards, 771 East Lancaster Avenue, Villanova, Pa. 19084, USA. The activity of selected compounds of this invention against Staphylococcus aureus and Streptococcus pneumoniae are shown in Table 1.
On the technique in general: Agar dilution tests growth on a series of plates holding different concentrations.

A further experiment deals with S. Aureus UC ® 9213. The description is as above. The settings on record: Staphylococcus aureus, UC9213.
Description: as §1

By MIC is commonly meant the lowest concentration that inhibits growth of the organism. A higher MIC goes with weaker potency.

In brackets after ≈: the same amount, converted by molar mass.

With `CC(=O)NC[C@H]1CN(c2ccc(-c3nnc(C#N)s3)c(F)c2)C(=O)O1` [Example 1, (S)-N-[[3-[4-(5-Cyano-1,3,4-thiadiazol-2-yl)-3-fluorophenyl]-2-oxo-5-oxazolidinyl]methyl]acetamide], the MIC in the experiment on HI 30063 was 2 µg/mL (≈ 5.53 µM); in the experiment on S. pneumoniae UC ® 9912 it was less than 0.125 µg/mL; against S. Aureus UC ® 9213, 0.5 µg/mL (≈ 1.38 µM).
For the molecule `CC(=O)NC[C@H]1CN(c2ccc(-c3nnc(C)s3)c(F)c2)C(=O)O1` [Example 3, (S)-N-[[3-[3-Fluoro-4-(5-methyl-1,3,4-thiadiazol-2-yl)phenyl]-2-oxo-5-oxazolidinyl]methyl]acetamide], the MIC was 2 µg/mL (≈ 5.71 µM) against HI 30063, less than 0.125 µg/mL with S. pneumoniae UC ® 9912 and 1 µg/mL (≈ 2.85 µM) in the experiment on S. Aureus UC ® 9213.
Turning to `CCc1nnc(-c2ccc(N3C[C@H](CNC(C)=O)OC3=O)cc2F)s1` [Example 4, (S)-N-[[3-[4-(5-Ethyl-1,3,4-thiadiazol-2-yl)-3-fluorophenyl]-2-oxo-5-oxazolidinyl]methyl]acetamide], the figures for the MIC in the experiment with HI 30063, in the experiment on S. pneumoniae UC ® 9912 and against S. Aureus UC ® 9213 were 4 µg/mL (≈ 11 µM), 0.25 µg/mL (≈ 0.686 µM) and 1 µg/mL (≈ 2.74 µM), respectively.
For `CC(=O)NC[C@H]1CN(c2ccc(-c3nnc(CN)s3)c(F)c2)C(=O)O1` [Example 6, (S)-N-[[3-[4-[5-(Aminomethyl)-1,3,4-thiadiazol-2-yl]-3-fluorophenyl]-2-oxo-5-oxazolidinyl]methyl]acetamide], in that order: 2 µg/mL (≈ 5.47 µM), less than 0.125 µg/mL and 8 µg/mL (≈ 21.9 µM).
For `CC(=O)NC[C@H]1CN(c2ccc(-c3nnc(CNS(C)(=O)=O)s3)c(F)c2)C(=O)O1` [Example 7, (S)-N-[[3-[3-Fluoro-4-[5-[[(methylsulfonyl)amino]methyl]-1,3,4-thiadiazol-2-yl]phenyl]-2-oxo-5-oxazolidinyl]methyl]acetamide], in that order: 2 µg/mL (≈ 4.51 µM), less than 0.125 µg/mL and 4 µg/mL (≈ 9.02 µM).
Regarding `CC(=O)NC[C@H]1CN(c2ccc(-c3nnc(CF)s3)c(F)c2)C(=O)O1` [Example 8, (S)-N-[[3-[3-Fluoro-4-(5-fluoromethyl-1,3,4-thiadiazol-2-yl)phenyl]-2-oxo-5-oxazolidinyl]methyl]acetamide], the minimal inhibitory concentration (MIC) came to 4 µg/mL (≈ 10.9 µM) against HI 30063, 0.25 µg/mL (≈ 0.679 µM) against S. pneumoniae UC ® 9912 and 1 µg/mL (≈ 2.71 µM) against S. Aureus UC ® 9213.
For the molecule `CC(=O)NC[C@H]1CN(c2ccc(-c3nncs3)c(F)c2)C(=O)O1` [Example 9, (S)-N-[[3-[3-Fluoro-4-(1,3,4-thiadiazol-2-yl)phenyl]-2-oxo-5-oxazolidinyl]methyl]acetamide], the MIC in the experiment on HI 30063 came out at 4 µg/mL (≈ 11.9 µM); in the experiment with S. pneumoniae UC ® 9912, 0.25 µg/mL (≈ 0.743 µM); with S. Aureus UC ® 9213, 1 µg/mL (≈ 2.97 µM).
As to `CC(=O)NC[C@H]1CN(c2ccc(-c3nnc(COC(C)=O)s3)c(F)c2)C(=O)O1` [Example 10, (S)-N-[[3-[4-(5-Acetoxymethyl-1,3,4-thiadiazol-2-yl)-3-fluorophenyl]-2-oxo-5-oxazolidinyl]methyl]acetamide], the MIC in the experiment on HI 30063 is 4 µg/mL (≈ 9.79 µM); against S. pneumoniae UC ® 9912, less than 0.125 µg/mL; against S. Aureus UC ® 9213, 1 µg/mL (≈ 2.45 µM).
As for `CC(=O)NC[C@H]1CN(c2ccc(-c3nnc(NC=O)s3)c(F)c2)C(=O)O1` [Example 41, (S)-N-[[3-[3-Fluoro-4-[5-(formylamino)-1,3,4-thiadiazol-2-yl]phenyl]-2-oxo-5-oxazolidinyl]methyl]acetamide], the MIC with S. pneumoniae UC ® 9912 turned out to be 0.5 µg/mL (≈ 1.32 µM); in the experiment with S. Aureus UC ® 9213, 4 µg/mL (≈ 10.5 µM).
The corresponding values for `CC(=O)NC[C@H]1CN(c2ccc(-c3nnc(CCCl)s3)c(F)c2)C(=O)O1` [Example 42, (S)-N-[[3-[4-[5-(2-Chloroethyl)-1,3,4-thiadiazol-2-yl]-3-fluorophenyl]-2-oxo-5-oxazolidinyl]methyl]acetamide] are less than 0.125 µg/mL and 1 µg/mL (≈ 2.51 µM).
Consider `C/C=C/c1nnc(-c2ccc(N3C[C@H](CNC(C)=O)OC3=O)cc2F)s1` [Example 43, (S)-N-[[3-[3-Fluoro-4-[5-(1-propenyl)-1,3,4-thiadiazol-2-yl]phenyl]-2-oxo-5-oxazolidinyl]methyl]acetamide], for which the MIC in the experiment with S. pneumoniae UC ® 9912 amounted to 0.5 µg/mL (≈ 1.33 µM); with S. Aureus UC ® 9213 it was 2 µg/mL (≈ 5.31 µM).
The corresponding values for `CC(=O)NC[C@H]1CN(c2ccc(-c3nnc(CCN)s3)c(F)c2)C(=O)O1` [Example 44, (S)-N-[[3-[4-[5-(2-Aminoethyl)-1,3,4-thiadiazol-2-yl]-3-fluorophenyl]-2-oxo-5-oxazolidinyl]methyl]acetamide] are 0.25 µg/mL (≈ 0.659 µM) and more than 16 µg/mL.
For `CC(=O)NCCc1nnc(-c2ccc(N3C[C@H](CNC(C)=O)OC3=O)cc2F)s1` [Example 45, (S)-N-[[3-[4-[5-[2-(Acetylamino)ethyl]-1,3,4-thiadiazol-2-yl]-3-fluorophenyl]-2-oxo-5-oxazolidinyl]methyl]acetamide], in that order: 0.5 µg/mL (≈ 1.19 µM) and 16 µg/mL (≈ 38 µM).
For `CC(=O)NC[C@H]1CN(c2ccc(-c3nnc(CCNS(C)(=O)=O)s3)c(F)c2)C(=O)O1` [Example 46, (S)-N-[[3-[3-Fluoro-4-[5-[2-[(methylsulfonyl)amino]ethyl]-1,3,4-thiadiazol-2-yl]phenyl]-2-oxo-5-oxazolidinyl]methyl]acetamide], in that order: 0.5 µg/mL (≈ 1.09 µM) and 16 µg/mL (≈ 35 µM).
With `CC(=O)NC[C@H]1CN(c2ccc(-c3nnc(C(C)C)s3)c(F)c2)C(=O)O1` [Example 48, (S)-N-[[3-[3-Fluoro-4-[5-(1-methylethyl)-1,3,4-thiadiazol-2-yl]phenyl]-2-oxo-5-oxazolidinyl]methyl]acetamide], the results for the MIC with S. pneumoniae UC ® 9912 and in the experiment with S. Aureus UC ® 9213 were 0.25 µg/mL (≈ 0.661 µM) and 1 µg/mL (≈ 2.64 µM), respectively.
In the case of `CC(=O)NCc1nnc(-c2ccc(N3C[C@H](CNC(C)=O)OC3=O)cc2F)s1` [Example 49, (S)-N-[[5-[4-[5-[(Acetylamino)methyl]-2-oxo-3-oxazolidinyl]-2-fluorophenyl]-1,3,4-thiadiazol-2-yl]methyl]acetamide], the minimum inhibitory concentration (MIC) in the experiment on S. pneumoniae UC ® 9912 amounted to 0.25 µg/mL (≈ 0.614 µM); in the experiment on S. Aureus UC ® 9213 it was 16 µg/mL (≈ 39.3 µM).
For `CC(=O)NC[C@H]1CN(c2ccc(-c3nnc(CCCN)s3)c(F)c2)C(=O)O1` [Example 57, (S)-N-[[3-[4-[5-(3-Aminopropyl)-1,3,4-thiadiazol-2-yl]-3-fluorophenyl]-2-oxo-5-oxazolidinyl]methyl]acetamide], in that order: 0.5 µg/mL (≈ 1.27 µM) and 16 µg/mL (≈ 40.7 µM).
As for `CC(=O)NCCCc1nnc(-c2ccc(N3C[C@H](CNC(C)=O)OC3=O)cc2F)s1` [Example 58, (S)-N-[3-[5-[4-[5-[(Acetylamino)methyl]-2-oxo-3-oxazolidinyl]-2-fluorophenyl]-1,3,4-thiadiazol-2-yl]propyl]acetamide], the MIC against S. pneumoniae UC ® 9912 turned out to be 0.25 µg/mL (≈ 0.574 µM); in the experiment with S. Aureus UC ® 9213, 8 µg/mL (≈ 18.4 µM).
`CC(=O)NC[C@H]1CN(c2ccc(-c3nnc(C(C)=O)s3)c(F)c2)C(=O)O1` [Example 59, (S)-N-[[3-[4-(5-Acetyl-1,3,4-thiadiazol-2-yl)-3-fluorophenyl]-2-oxo-5-oxazolidinyl]methyl]acetamide]: the figures for the MIC in the experiment with S. pneumoniae UC ® 9912 and against S. Aureus UC ® 9213 were 0.5 µg/mL (≈ 1.32 µM) and 2 µg/mL (≈ 5.29 µM), respectively.
For the molecule `CC(=O)NC[C@H]1CN(c2ccc(-c3nnc(CCCCl)s3)c(F)c2)C(=O)O1` [Example 60, (S)-N-[[3-[4-[5-(3-Chloropropyl)-1,3,4-thiadiazol-2-yl]-3-fluorophenyl]-2-oxo-5-oxazolidinyl]methyl]acetamide], the MIC turned out to be 0.5 µg/mL (≈ 1.21 µM) against S. pneumoniae UC ® 9912 and 2 µg/mL (≈ 4.84 µM) in the experiment with S. Aureus UC ® 9213.
For `CC(=O)NC[C@H]1CN(c2ccc(-c3nnc(S(C)(=O)=O)s3)c(F)c2)C(=O)O1` [Example 62, (S)-N-[[3-[3-Fluoro-4-[5-(methylsulfonyl)-1,3,4-thiadiazol-2-yl]phenyl]-2-oxo-5-oxazolidinyl]methyl]acetamide], the values for the MIC against S. pneumoniae UC ® 9912 and in the experiment with S. Aureus UC ® 9213 were 0.5 µg/mL (≈ 1.21 µM) and 2 µg/mL (≈ 4.83 µM), respectively.
For `CON=C(C)CCc1nnc(-c2ccc(N3C[C@H](CNC(C)=O)OC3=O)cc2F)s1` [Example 65, (S)-N-[[3-[3-Fluoro-4-[5-[3-(methoxyimino)butyl]-1,3,4-thiadiazol-2-yl]phenyl]-2-oxo-5-oxazolidinyl]methyl]acetamide], in that order: 2 µg/mL (≈ 4.59 µM) and 8 µg/mL (≈ 18.4 µM).
`CC(=O)NC[C@H]1CN(c2ccc(-c3nnc(CNC(=O)COC(C)=O)s3)c(F)c2)C(=O)O1` [Example 66]: the values for the MIC against S. pneumoniae UC ® 9912 and with S. Aureus UC ® 9213 were less than 0.5 µg/mL and 16 µg/mL (≈ 34.4 µM), respectively.
Regarding `CC(=O)NC[C@H]1CN(c2ccc(-c3nnc(CNC(=O)CO)s3)c(F)c2)C(=O)O1` [Example 67], the values for the minimal inhibitory concentration (MIC) with S. pneumoniae UC ® 9912 and against S. Aureus UC ® 9213 were less than 0.5 µg/mL and 16 µg/mL (≈ 37.8 µM), respectively.
The corresponding values for `CC(=O)NC[C@H]1CN(c2ccc(-c3nnc(NC(=O)COC(C)=O)s3)c(F)c2)C(=O)O1` [Example 68, (S)-N-[5-[4-[5-[(Acetylamino)methyl]-2-oxo-3-oxazolidinyl]-2-fluorophenyl]-1,3,4-thiadiazol-2-yl]-2-(acetyloxy)acetamide] are 2 µg/mL (≈ 4.43 µM) and 8 µg/mL (≈ 17.7 µM).
As for `CC(=O)NC[C@H]1CN(c2ccc(-c3nnc(CS(C)(=O)=O)s3)c(F)c2)C(=O)O1` [Example 69, (S)-N-[[3-[3-Fluoro-4-[5-[(methylsulfonyl)methyl]-1,3,4-thiadiazol-2-yl]phenyl]-2-oxo-5-oxazolidinyl]methyl]acetamide], the MIC was less than 0.5 µg/mL against S. pneumoniae UC ® 9912 and 4 µg/mL (≈ 9.34 µM) against S. Aureus UC ® 9213.
Turning to `CCC(=O)NC[C@H]1CN(c2ccc(-c3nnc(CCOC)s3)c(F)c2)C(=O)O1` [Example 72, (S)-N-[[3-[3-Fluoro-4-[5-(2-methoxyethyl)-1,3,4-thiadiazol-2-yl]phenyl]-2-oxo-5-oxazolidinyl]methyl]propanamide], the minimum inhibitory concentration (MIC) in the experiment with S. pneumoniae UC ® 9912 was 0.25 µg/mL (≈ 0.612 µM); against S. Aureus UC ® 9213 it was 4 µg/mL (≈ 9.79 µM).
Turning to `COCCc1nnc(-c2ccc(N3C[C@H](CNC(C)=O)OC3=O)cc2F)s1` [Example 73, (S)-N-[[3-[3-Fluoro-4-[5-(2-methoxyethyl)-1,3,4-thiadiazol-2-yl]phenyl]-2-oxo-5-oxazolidinyl]methyl]acetamide], the MIC with S. pneumoniae UC ® 9912 is less than 0.5 µg/mL; in the experiment with S. Aureus UC ® 9213 it was 2 µg/mL (≈ 5.07 µM).
